pIC50: −log10 of the molar value.
Experiments:
[1] = Ratio of drug uptake in liver to plasma in Sprague-Dawley rat at 20 mg/kg, po administered as single dose; format: ADME, organism-based; design: dose 20 mg/kg, route oral
Mus musculus [2] = test: Hepatotoxicity in ob/ob mouse assessed as ALT level at 20 mg/kg, po administered BID for 28 days measured st 16 hrs post-last dose (reference value: 259.4+/-18.6 U/L); format: toxicity, organism-based; design: dose 20 mg/kg, route oral; conditions: in vivo
Mus musculus [3] = test: Toxicity in ob/ob mouse assessed as change in body weight at 20 mg/kg, po administered BID for 28 days (reference value: 11.7+/-1.1 g); format: organism-based; design: dose 20 mg/kg, route oral; conditions: in vivo, 672 h
Glucocorticoid receptor [4] = target: T1, Glucocorticoid receptor (Homo sapiens, UniProt P04150); test: Displacement of [3H]dexamethasone from human glucocorticoid receptor expressed in baculovirus infected Sf9 cells after overnight incubation by scintillation counting
T1 sequence (P04150 whole entry): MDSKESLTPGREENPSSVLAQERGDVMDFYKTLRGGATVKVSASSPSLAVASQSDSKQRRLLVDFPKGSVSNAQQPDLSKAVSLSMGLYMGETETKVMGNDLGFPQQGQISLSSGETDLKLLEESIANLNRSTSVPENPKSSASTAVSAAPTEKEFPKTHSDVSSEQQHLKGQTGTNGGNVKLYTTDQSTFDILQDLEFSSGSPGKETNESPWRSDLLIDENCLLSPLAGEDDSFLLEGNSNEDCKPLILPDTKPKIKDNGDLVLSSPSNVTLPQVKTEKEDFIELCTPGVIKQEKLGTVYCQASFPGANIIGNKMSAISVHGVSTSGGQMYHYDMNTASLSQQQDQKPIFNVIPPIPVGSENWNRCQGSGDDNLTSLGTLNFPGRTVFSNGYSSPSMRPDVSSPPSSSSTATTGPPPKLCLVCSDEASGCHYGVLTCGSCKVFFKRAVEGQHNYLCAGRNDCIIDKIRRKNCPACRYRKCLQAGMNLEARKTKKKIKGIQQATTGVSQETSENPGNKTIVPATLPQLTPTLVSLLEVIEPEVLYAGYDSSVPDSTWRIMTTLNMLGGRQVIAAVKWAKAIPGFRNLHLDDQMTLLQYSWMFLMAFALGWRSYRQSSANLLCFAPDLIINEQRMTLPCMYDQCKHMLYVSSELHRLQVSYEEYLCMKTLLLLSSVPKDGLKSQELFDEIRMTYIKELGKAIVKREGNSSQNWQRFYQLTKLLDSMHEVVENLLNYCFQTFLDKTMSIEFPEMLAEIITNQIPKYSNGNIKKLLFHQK

Glucocorticoid receptor [5] = target: T1, Glucocorticoid receptor; test: Antagonist activity at human glucocorticoid receptor expressed in GRAF cells assessed as inhibition of dexamethasone-induced alkaline phosphatase expression after 48 hrs by reporter gene assay; format: functional, cell-based
Mus musculus [6] = test: Antidiabetic activity in po dosed ob/ob mouse assessed as decrease in post-prandial blood glucose level administered BID for 28 days measured 16 hrs post-last dose; format: functional, organism-based
Mus musculus [7] = test: Antihyperlipidemic activity in ob/ob mouse assessed as cholesterol level at 10 mg/kg, po administered BID for 28 days measured 16 hrs post-last dose (reference value: 331.2+/-17.9 mg/dL); format: functional
Mus musculus [8] = test: Toxicity in ob/ob mouse assessed as change in body weight at 10 mg/kg, po administered BID for 28 days (reference value: 11.7+/-1.1 g); format: organism-based; design: dose 10 mg/kg, route oral; conditions: in vivo, 672 h
Mus musculus [9] = test: Antidiabetic activity in ob/ob mouse assessed as decrease in post-prandial blood glucose level at 10 mg/kg, po administered BID for 28 days measured 16 hrs post-last dose relative to vehicle-treated control; format: functional; design: scale not given: the % may be the effect or the level left
Mus musculus [10] = test: Hepatotoxicity in ob/ob mouse assessed as AST level at 10 mg/kg, po administered BID for 28 days measured st 16 hrs post-last dose (reference value: 332.2+/-39.1 U/L); format: toxicity, organism-based; design: dose 10 mg/kg, route oral; conditions: in vivo
Mus musculus [11] = test: Antihyperlipidemic activity in ob/ob mouse assessed as triglyceride level at 20 mg/kg, po administered BID for 28 days measured 16 hrs post-last dose (reference value: 292.5+/-17.5 mg/dL); format: functional
[12] = Oral bioavailability in Sprague-Dawley rat; format: ADME, organism-based; conditions: in vivo
Rattus norvegicus = test: Activation of hyphalamic-pituitary-adrenal axis in Sprague-Dawley rat assessed as change in corticosterone level at 100 mg/kg, po administered as single dose measured at 2 hrs relative to vehicle-treated control; format: organism-based; design: dose 100 mg/kg, route oral; conditions: in vivo
Mus musculus [13] = test: Antidiabetic activity in ob/ob mouse assessed as Hb1Ac level at 20 mg/kg, po administered BID for 28 days measured 16 hrs post-last dose (reference value: 9.3+/-0.4%); format: functional
[14] = AUC (0 to infinity) in Sprague-Dawley rat at 20 mg/kg, po administered as single dose; format: ADME, organism-based; design: time infinity, dose 20 mg/kg, route oral; conditions: plasma
Mus musculus [15] = test: Antidiabetic activity in ob/ob mouse assessed as Hb1Ac level at 10 mg/kg, po administered BID for 28 days measured 16 hrs post-last dose (reference value: 9.3+/-0.4%); format: functional
Mus musculus [16] = test: Antihyperlipidemic activity in ob/ob mouse assessed as cholesterol level at 20 mg/kg, po administered BID for 28 days measured 16 hrs post-last dose (reference value: 331.2+/-17.9 mg/dL); format: functional
[17] = Half life in Sprague-Dawley rat at 20 mg/kg, po administered as single dose; format: ADME, organism-based; design: dose 20 mg/kg, route oral; conditions: in vivo
Mus musculus [18] = test: Antidiabetic activity in ob/ob mouse assessed as decrease in post-prandial blood glucose level at 20 mg/kg, po administered BID for 28 days measured 16 hrs post-last dose relative to vehicle-treated control; format: functional; design: scale not given: the % may be the effect or the level left
Mus musculus [19] = test: Antidiabetic activity in ob/ob mouse assessed as insulin level at 20 mg/kg, po administered BID for 28 days measured 16 hrs post-last dose by ELISA (reference value: 13.6+/-2.3 ng/mL); format: functional
Mus musculus [20] = test: Hepatotoxicity in ob/ob mouse assessed as ALT level at 10 mg/kg, po administered BID for 28 days measured st 16 hrs post-last dose (reference value: 259.4+/-18.6 U/L); format: toxicity, organism-based; design: dose 10 mg/kg, route oral; conditions: in vivo
Mus musculus [21] = test: Antihyperlipidemic activity in ob/ob mouse assessed as free fatty acid level at 10 mg/kg, po administered BID for 28 days measured 16 hrs post-last dose (reference value: 1.96+/-0.09 mEq/L); format: functional
[22] = Drug uptake in Sprague-Dawley rat liver at 20 mg/kg, po administered as single dose measured at 0.5 hrs; format: ADME, organism-based; design: dose 20 mg/kg, route oral; conditions: read-out: Drug uptake
Mus musculus [23] = test: Antihyperlipidemic activity in ob/ob mouse assessed as triglyceride level at 10 mg/kg, po administered BID for 28 days measured 16 hrs post-last dose (reference value: 292.5+/-17.5 mg/dL); format: functional
[24] = Cmax in Sprague-Dawley rat at 20 mg/kg, po administered as single dose; format: ADME, organism-based; design: dose 20 mg/kg, route oral; conditions: in vivo
Mus musculus [25] = test: Antidiabetic activity in ob/ob mouse assessed as insulin level at 10 mg/kg, po administered BID for 28 days measured 16 hrs post-last dose by ELISA (reference value: 13.6+/-2.3 ng/mL); format: functional
Mus musculus [26] = test: Hepatotoxicity in ob/ob mouse assessed as AST level at 20 mg/kg, po administered BID for 28 days measured st 16 hrs post-last dose (reference value: 332.2+/-39.1 U/L); format: toxicity, organism-based; design: dose 20 mg/kg, route oral; conditions: in vivo

O=C(O)Cc1cc(Br)c(N(Cc2ccc(Oc3ccc(F)cc3F)cc2)Cc2cc(F)cc(F)c2)c(Br)c1
Kp [1]: 24.8 | Activity (Mus musculus [2]): 247.5 U/L | Activity (Mus musculus [3]): 10.9 g | pIC50 (Glucocorticoid receptor [4]): 8.35 | pIC50 (Glucocorticoid receptor [5]): 6.68 | Activity (Mus musculus [6]): Dose-dependent effect | Activity (Mus musculus [7]): 266.6 mg/dL | Activity (Mus musculus [8]): 11.9 g | Activity (Mus musculus [9]): 32% | Activity (Mus musculus [10]): 345.3 U/L | Activity (Mus musculus [11]): 173.5 mg/dL | bioavailability [12]: 10.7% | Activity (Rattus norvegicus): Non-toxic | Activity (Mus musculus [13]): 6% | AUC(0-inf) [14]: 1390 ng·h/mL | Activity (Mus musculus [15]): 6.7% | Activity (Mus musculus [16]): 219.5 mg/dL | half-life [17]: 5.96 h | Activity (Mus musculus [18]): 42% | Activity (Mus musculus [19]): 12.3 ng/mL | Activity (Mus musculus [20]): 261 U/L | Activity (Mus musculus [21]): 1.32 mEq/L | concentration at 0.5 h [22]: 21800 ng/mL | Activity (Mus musculus [23]): 214.3 mg/dL | Cmax [24]: 880 ng/mL | Activity (Mus musculus [25]): 14.1 ng/mL | Activity (Mus musculus [26]): 353.2 U/L

Reference: ChEMBL document CHEMBL2086309, “Discovery of liver selective non-steroidal glucocorticoid receptor antagonist as novel antidiabetic agents” (Bioorg Med Chem Lett, 2012)
